Experimental data: patent US7319098B2, “1,3-dioxoisoindole derivatives having selective antagonism of T-type calcium channel” (Korea Institute of Science and Technology, priority 2006, dated 2008)

Molecular target: T1, α1G T-type Ca2+ channels (Homo sapiens, UniProt O43497)
T1 construct: expressed in transfected cells; host or cells: HEK293 cells stably expressing α1G and Kir2.1
Assay: Screening of activity against T-type calcium channel with FDSS6000 (fluorescence, KCl-induced [Ca2+]i increase)
Type: cell-based
Conditions: HEK293 cells expressing α1G and Kir2.1, read-out: Inhibitory effect (%) of T-type calcium channel, Inhibition (%); for inhibition at 10 µM: NA: Not Active
Outline: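 HEK293 cells stably expressing α1G plus Kir2.1 were loaded with 5 μM fluo3/AM for 60 min at room temperature in HEPES buffer pH 7.4. In buffer with 10 mM CaCl2, cells were pretreated with compound, then depolarized with 70 mM KCl. The rise in [Ca2+]i was measured by fluorescence […].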

T1 sequence (O43497 whole entry): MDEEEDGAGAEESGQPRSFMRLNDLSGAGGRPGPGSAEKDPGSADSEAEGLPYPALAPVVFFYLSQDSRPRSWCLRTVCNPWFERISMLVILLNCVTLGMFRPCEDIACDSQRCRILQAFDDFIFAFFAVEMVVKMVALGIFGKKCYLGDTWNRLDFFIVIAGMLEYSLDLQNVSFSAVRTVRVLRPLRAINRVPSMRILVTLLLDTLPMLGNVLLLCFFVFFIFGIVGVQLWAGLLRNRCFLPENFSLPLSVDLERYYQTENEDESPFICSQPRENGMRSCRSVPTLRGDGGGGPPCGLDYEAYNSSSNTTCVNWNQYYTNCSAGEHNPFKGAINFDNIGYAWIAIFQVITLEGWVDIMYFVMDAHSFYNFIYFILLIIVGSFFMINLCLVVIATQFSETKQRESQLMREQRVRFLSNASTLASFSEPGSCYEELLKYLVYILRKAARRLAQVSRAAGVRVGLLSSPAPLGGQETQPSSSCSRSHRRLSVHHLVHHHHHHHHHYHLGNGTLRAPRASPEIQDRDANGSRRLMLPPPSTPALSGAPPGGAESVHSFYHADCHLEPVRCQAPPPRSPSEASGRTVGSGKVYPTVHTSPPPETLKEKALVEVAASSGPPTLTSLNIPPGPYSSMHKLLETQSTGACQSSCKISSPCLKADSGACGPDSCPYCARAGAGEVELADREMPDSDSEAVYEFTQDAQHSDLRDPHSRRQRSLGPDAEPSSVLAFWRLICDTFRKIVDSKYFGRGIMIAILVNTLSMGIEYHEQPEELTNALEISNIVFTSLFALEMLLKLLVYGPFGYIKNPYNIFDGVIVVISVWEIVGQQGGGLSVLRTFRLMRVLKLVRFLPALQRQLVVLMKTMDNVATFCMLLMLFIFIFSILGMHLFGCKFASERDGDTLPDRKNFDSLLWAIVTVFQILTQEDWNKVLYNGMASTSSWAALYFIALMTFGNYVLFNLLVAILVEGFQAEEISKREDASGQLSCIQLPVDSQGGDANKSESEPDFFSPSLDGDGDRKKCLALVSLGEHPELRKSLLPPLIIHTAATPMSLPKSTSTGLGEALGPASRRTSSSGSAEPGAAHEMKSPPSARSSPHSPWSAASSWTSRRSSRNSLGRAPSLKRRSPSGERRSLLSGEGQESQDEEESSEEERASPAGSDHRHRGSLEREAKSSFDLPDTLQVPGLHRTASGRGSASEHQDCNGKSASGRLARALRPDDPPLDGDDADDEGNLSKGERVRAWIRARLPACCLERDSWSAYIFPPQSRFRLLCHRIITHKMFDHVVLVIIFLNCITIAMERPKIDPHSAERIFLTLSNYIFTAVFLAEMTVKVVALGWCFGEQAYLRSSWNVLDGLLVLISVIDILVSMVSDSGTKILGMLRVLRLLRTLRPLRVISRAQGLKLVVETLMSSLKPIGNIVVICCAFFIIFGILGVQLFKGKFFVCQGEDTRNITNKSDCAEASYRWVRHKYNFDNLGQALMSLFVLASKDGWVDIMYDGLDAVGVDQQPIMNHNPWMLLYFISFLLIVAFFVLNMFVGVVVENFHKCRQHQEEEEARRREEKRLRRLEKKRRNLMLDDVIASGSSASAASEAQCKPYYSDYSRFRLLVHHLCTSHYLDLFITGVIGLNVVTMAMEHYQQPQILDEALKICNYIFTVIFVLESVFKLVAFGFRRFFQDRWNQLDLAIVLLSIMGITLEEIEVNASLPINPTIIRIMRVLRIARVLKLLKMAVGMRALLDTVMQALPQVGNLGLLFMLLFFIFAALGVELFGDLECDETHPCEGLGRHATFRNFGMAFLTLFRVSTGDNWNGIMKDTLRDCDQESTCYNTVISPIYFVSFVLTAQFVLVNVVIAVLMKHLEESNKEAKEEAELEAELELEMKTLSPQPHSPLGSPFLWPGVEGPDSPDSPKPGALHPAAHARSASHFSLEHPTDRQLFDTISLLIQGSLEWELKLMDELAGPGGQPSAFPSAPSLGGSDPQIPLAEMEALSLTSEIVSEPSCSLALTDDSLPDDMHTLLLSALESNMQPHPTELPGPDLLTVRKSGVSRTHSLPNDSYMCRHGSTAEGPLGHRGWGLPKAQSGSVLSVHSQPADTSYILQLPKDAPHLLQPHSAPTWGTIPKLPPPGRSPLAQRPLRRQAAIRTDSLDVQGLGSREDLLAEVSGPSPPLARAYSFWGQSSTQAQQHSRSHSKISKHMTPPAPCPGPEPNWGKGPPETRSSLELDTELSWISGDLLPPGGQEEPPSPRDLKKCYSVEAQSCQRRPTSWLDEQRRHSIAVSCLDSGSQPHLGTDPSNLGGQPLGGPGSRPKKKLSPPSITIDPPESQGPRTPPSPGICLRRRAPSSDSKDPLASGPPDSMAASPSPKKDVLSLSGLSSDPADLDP

Row | Compound | inhibition at 10 µM [%] | inhibition at 100 µM [%]
1 | Cc1cccc(CN2C(=O)c3ccc(C(=O)NCCN4CCOCC4)cc3C2=O)c1 [Compound 103, 4-(2-{[2-(3-methyl-benzyl)-1,3-dioxo-2,3-dihydro-1H-isoindol-5-carbonyl]-amino}-ethyl)-4-morpholinium chloride] | 21.1 | –
2 | Cc1cccc(CN2C(=O)c3ccc(C(=O)NCCCN4CCOCC4)cc3C2=O)c1 [Compound 104, 4-(3-{[2-(3-methyl-benzyl)-1,3-dioxo-2,3-dihydro-1H-isoindol-5-carbonyl]-amino}-propyl)-4-morpholinium chloride] | 15.5 | –
3 | Cc1ccc(CN2C(=O)c3ccc(C(=O)NCCN4CCCCC4)cc3C2=O)cc1 [Compound 105, 1-(2-{[2-(4-methyl-benzyl)-1,3-dioxo-2,3-dihydro-1H-isoindol-5-carbonyl]-amino}-ethyl)-piperidinium chloride] | 30.9 | –
4 | Cc1ccc(CN2C(=O)c3ccc(C(=O)NCCCN4CCCCC4)cc3C2=O)cc1 [Compound 106, 1-(3-{[2-(4-methyl-benzyl)-1,3-dioxo-2,3-dihydro-1H-isoindol-5-carbonyl]-amino}-propyl)-piperidinium chloride] | 40.1 | –
5 | Cc1ccc(CN2C(=O)c3ccc(C(=O)NCCN4CCCC4)cc3C2=O)cc1 [Compound 107, 1-(2-{[2-(4-methyl-benzyl)-1,3-dioxo-2,3-dihydro-1H-isoindol-5-carbonyl]-amino}-ethyl)-pyrrolidinium chloride] | 20.7 | –
6 | Cc1ccc(CN2C(=O)c3ccc(C(=O)NCCCN4CCCC4)cc3C2=O)cc1 [Compound 108, 1-(3-{[2-(4-methyl-benzyl)-1,3-dioxo-2,3-dihydro-1H isoindol-5-carbonyl]-amino}-propyl)-pyrrolidinium chloride] | 15.6 | –
7 | Cc1ccc(CN2C(=O)c3ccc(C(=O)NCCN4CCOCC4)cc3C2=O)cc1 [Compound 109, 4-(2-{[2-(4-methyl-benzyl)-1,3-dioxo-2,3-dihydro-1H-isoindol-5-carbonyl]-amino}-ethyl)-4-morpholinium chloride] | 12.2 | –
8 | Cc1ccc(CN2C(=O)c3ccc(C(=O)NCCCN4CCOCC4)cc3C2=O)cc1 [Compound 110, 4-(3-{[2-(4-methyl-benzyl)-1,3-dioxo-2,3-dihydro-1H-isoindol-5-carbonyl]-amino}-propyl)-4-morpholinium chloride] | 9.1 | –
9 | COc1ccccc1CN1C(=O)c2ccc(C(=O)NCCN3CCCCC3)cc2C1=O [Compound 111, 1-(2-{[2-(2-methoxy-benzyl)-1,3-dioxo-2,3-dihydro-1H-isoindol-5-carbonyl]-amino}-ethyl)-piperidinium chloride] | – | 69.5
10 | COc1ccccc1CN1C(=O)c2ccc(C(=O)NCCCN3CCCCC3C)cc2C1=O (stereo not drawn) [Compound 112, 1-(3-{[2-(2-methoxy-benzyl)-1,3-dioxo-2,3-dihydro-1H-isoindol-5-carbonyl]-amino}-propyl)-2-methyl-piperidinium chloride] | – | 75.1
11 | COc1ccccc1CN1C(=O)c2ccc(C(=O)NCCN3CCCC3)cc2C1=O [Compound 113, 1-(2-{[2-(2-methoxy-benzyl)-1,3-dioxo-2,3-dihydro-1H-isoindol-5-carbonyl]-amino}-ethyl)-pyrrolidinium chloride] | – | 55.1
12 | COc1ccccc1CN1C(=O)c2ccc(C(=O)NCCCN3CCCC3)cc2C1=O [Compound 114, 1-(3-{[2-(2-methoxy-benzyl)-1,3-dioxo-2,3-dihydro-1H-isoindol-5-carbonyl]-amino}-propyl)-pyrrolidinium chloride] | – | 53
13 | COc1ccccc1CN1C(=O)c2ccc(C(=O)NCCN3CCOCC3)cc2C1=O [Compound 115, 4-(2-{[2-(2-methoxy-benzyl)-1,3-dioxo-2,3-dihydro-1H-isoindol-5-carbonyl]-amino}-ethyl)-4-morpholinium chloride] | – | 51.1
14 | COc1ccccc1CN1C(=O)c2ccc(C(=O)NCCCN3CCOCC3)cc2C1=O [Compound 116, 4-(3-{[2-(2-methoxy-benzyl)-1,3-dioxo-2,3-dihydro-1H-isoindol-5-carbonyl]-amino}-propyl)-4-morpholinium chloride] | – | 48.8
15 | COc1cccc(CN2C(=O)c3ccc(C(=O)NCCN4CCCCC4)cc3C2=O)c1 [Compound 117, 1-(2-{[2-(3-methoxy-benzyl)-1,3-dioxo-2,3-dihydro-1H-isoindol-5-carbonyl]-amino}-ethyl)-piperidinium chloride] | – | 69.8
16 | COc1cccc(CN2C(=O)c3ccc(C(=O)NCCCN4CCCCC4C)cc3C2=O)c1 (stereo not drawn) [Compound 118, 1-(3-{[2-(3-methoxy-benzyl)-1,3-dioxo-2,3-dihydro-1H-isoindol-5-carbonyl]-amino}-propyl)-2-methyl-piperidinium chloride] | – | 71.1
17 | COc1cccc(CN2C(=O)c3ccc(C(=O)NCCN4CCCC4)cc3C2=O)c1 [Compound 119, 1-(2-{[2-(3-methoxy-benzyl)-1,3-dioxo-2,3-dihydro-1H-isoindol-5-carbonyl]-amino}-ethyl)-pyrrolidinium chloride] | – | 56.3
18 | COc1cccc(CN2C(=O)c3ccc(C(=O)NCCCN4CCCC4)cc3C2=O)c1 [Compound 120, 1-(3-{[2-(3-methoxy-benzyl)-1,3-dioxo-2,3-dihydro-1H-isoindol-5-carbonyl]-amino}-propyl)-pyrrolidinium chloride] | – | 63.7
19 | COc1cccc(CN2C(=O)c3ccc(C(=O)NCCN4CCOCC4)cc3C2=O)c1 [Compound 121, 4-(2-{[2-(3-methoxy-benzyl)-1,3-dioxo-2,3-dihydro-1H-isoindol-5-carbonyl]-amino}-ethyl)-4-morpholinium chloride] | – | 57.6
20 | COc1cccc(CN2C(=O)c3ccc(C(=O)NCCCN4CCOCC4)cc3C2=O)c1 [Compound 122, 4-(3-{[2-(3-methoxy-benzyl)-1,3-dioxo-2,3-dihydro-1H-isoindol-5-carbonyl]-amino}-propyl)-4-morpholinium chloride] | – | 56.6
21 | COc1ccc(CN2C(=O)c3ccc(C(=O)NCCN4CCCCC4)cc3C2=O)cc1 [Compound 123, 1-(2-{[2-(4-methoxy-benzyl)-1,3-dioxo-2,3-dihydro-1H isoindol-5-carbonyl]-amino}-ethyl)-piperidinium chloride] | – | 64.3
22 | COc1ccc(CN2C(=O)c3ccc(C(=O)NCCCN4CCCCC4C)cc3C2=O)cc1 (stereo not drawn) [Compound 124, 1-(3-{[2-(4-methoxy-benzyl)-1,3-dioxo-2,3-dihydro-1H-isoindol-5-carbonyl]-amino}-propyl)-2-methyl-piperidinium chloride] | – | 77.7
23 | COc1ccc(CN2C(=O)c3ccc(C(=O)NCCN4CCCC4)cc3C2=O)cc1 [Compound 125, 1-(2-{[2-(4-methoxy-benzyl)-1,3-dioxo-2,3-dihydro-1H-isoindol-5-carbonyl]-amino}-ethyl)-pyrrolidinium chloride] | – | 65.2
24 | COc1ccc(CN2C(=O)c3ccc(C(=O)NCCCN4CCCC4)cc3C2=O)cc1 [Compound 126, 1-(3-{[2-(4-methoxy-benzyl)-1,3-dioxo-2,3-dihydro-1H-isoindol-5-carbonyl]-amino}-propyl)-pyrrolidinium chloride] | – | 73.8
